# Molecular target: human PDE9 (PDE9A2) (Homo sapiens (Human), UniProt O76083)
# Test: PDE9 IMAP fluorescence polarization (FP) inhibition assay
# Type: biochemical
# Conditions: FAM-cGMP substrate 50 nM, room temperature
# Method: The activity of the compounds in accordance with the present invention as PDE9 inhibitors may be readily determined without undue experimentation using a fluorescence polarization (FP) methodology that is well known in the art (Huang, W., et al., J. Biomol Screen, 2002, 7: 215).
# In a typical experiment the PDE9 inhibitory activity of the compounds of the present invention was determined in accordance with the following experimental method. Rhesus PDE9A2 was amplified from rhesus whole brain cDNA (Biochain Institute) essentially as described in Hutson, et al. Neuropharmacology (2011) 61(4):665-676. HEK 293 or CHO cells over-expressing rhesus or rat PDE9A2 (created by DiscoverX from mRNA Genbank accession # NM_138543) respectively were lysed in 20 mM HEPES, 1 mM EDTA buffer with protease inhibitors (Roche, Indianapolis, Ind.). After brief homogenization, cells were pelleted via centrifugation at 75,000×g for 20 min at 4° C. The pellets were re-suspended, centrifuged and re-pelleted again in the same manner. The membrane fraction was collected in 20 mM HEPES, 1 mM MgCl2 with protease inhibitors. Human PDE9 (PDE9A2, GenBank Accession No. NM_001001567), full length with N-terminal GST tag, was purchased from BPS Bioscience. The fluorescence polarization assay for cyclic nucleotide phosphodiesterases was performed using an IMAP® FP kit supplied by Molecular Devices, Sunnyvale, Calif. (product # R8139). IMAP® technology has been applied previously to phosphodiesterase assays (Huang, W., et al., J. Biomol Screen, 2002, 7: 215). Assays were performed at room temperature in 384-well microtiter plates with an incubation volume of 20.2 μL. Solutions of test compounds were prepared in DMSO and serially diluted with DMSO to yield 8 μL of each of 10 solutions differing by 3-fold in concentration, at 32 serial dilutions per plate. 100% inhibition is determined using a known PDE9 inhibitor, such as 1-(2-chlorophenyl)-6-[(2R)-3,3,3-trifluoro-2-methylpropyl]-1,5-dihydro-4H-pyrazolo[3,4-d]pyrimidine-4-one (BAY 73-6691) (Wunder et al, Mol. Pharmacol., 2005, 68(6): 1775-81), (6-[(3S,4S)-4-methyl-1-(pyrimidin-2-ylmethyl)pyrrolidin-3-yl]-1-(tetrahydro-2H-pyran-4-yl)-1,5-dihydro-4H-pyrazolo[3,4-d]pyrimidin-4-one (PF-04447943) (Wager et al., ACS Chemical Neuroscience, 2010, 1:435-449). 0% of inhibition is determined by using DMSO (1% final concentrations). A Labcyte Echo 555 (Labcyte, Sunnyvale, Calif.) is used to dispense 200 nL from each well of the titration plate to the 384 well assay plate. Rhesus membrane preps were diluted to 4 ng/ml, rat membrane preps diluted to 13 ng/ml, and human PDE9A2 diluted to 1 ng/ml. FAM-labeled cGMP substrate (Molecular Devices, Sunnyvale, Calif.) was at a concentration of 100 nM (Km of PDE9 for cGMP is 70-170 nM) in the assay buffer (10 mM Tris HCl, pH 7.2, 10 mM MgCl2, 0.05% NaN3 0.01% Tween-20, and 1 mM DTT). PDE9 enzyme mix and compounds were mixed and incubated at room temperature for 30 min. Following which, FAMcGMP substrate was added, shaken and incubated for an additional 60 min at room temperature. The final concentrations of rhesus and rat membrane preparations were 2 ng/ml and 6.5 ng/ml, respectively, while the human PDE9 was used at a final concentration of 0.5 ng/ml. The final concentration of FAM-cGMP was 50 nM. After the incubation period, the enzymatic reaction was stopped by addition of binding solution (IMAP-FP, Molecular Devices, comprised of 80% Solution A, 20% Solution B and a 1:600 dilution of binding reagent) to each well. The plates were shaken then incubated at room temperature for 1 h prior to determining the fluorescence polarization (mP) using a Perkin Elmer EnVision™ plate reader (Waltham, Mass.).
# Fluorescence polarization (mP) was calculated from the parallel (S) and perpendicular (P) fluorescence of each sample well and the analogous values for the median control well, containing only substrate (So and Po), using the following equation: Polarization(mP)=1000*(S/So−P/Po)/(S/So+P/Po). […]
# Chain of human PDE9 (PDE9A2) (O76083 other isoform, or with tags, fused parts or gaps): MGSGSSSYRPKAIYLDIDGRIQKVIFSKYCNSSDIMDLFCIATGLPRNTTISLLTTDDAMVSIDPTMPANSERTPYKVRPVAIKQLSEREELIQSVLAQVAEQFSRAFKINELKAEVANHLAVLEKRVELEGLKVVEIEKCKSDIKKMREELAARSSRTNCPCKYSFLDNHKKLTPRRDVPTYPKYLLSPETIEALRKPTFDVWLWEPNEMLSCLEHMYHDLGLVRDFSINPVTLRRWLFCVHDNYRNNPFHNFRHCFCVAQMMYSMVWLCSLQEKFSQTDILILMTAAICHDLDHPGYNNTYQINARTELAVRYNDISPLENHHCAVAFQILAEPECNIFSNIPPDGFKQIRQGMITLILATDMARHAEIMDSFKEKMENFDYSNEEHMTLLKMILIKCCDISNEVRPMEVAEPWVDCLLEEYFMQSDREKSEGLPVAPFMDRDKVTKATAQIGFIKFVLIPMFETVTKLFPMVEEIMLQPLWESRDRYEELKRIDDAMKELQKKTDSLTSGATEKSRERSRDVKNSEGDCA
row,SMILES,Ki [µM]
1,"N#Cc1c(N2CC[C@@H](n3cccn3)C2)c2ccccc2[nH]c1=O [Example 1-7, (R)-4-(3-[1H-pyrazol-1-yl]pyrrolidin-1-yl)-2-oxo-1,2-dihydroquinoline-3-carbonitrile]",0.0075
2,"N#Cc1c(NCCC2COC2)c2ccccc2[nH]c1=O [Example 1-12, 4-((2-(oxetan-3-yl)ethyl)amino)-2-oxo-1,2-dihydroquinoline-3-carbonitrile]",0.0711
3,"CCN(CC)c1c(C#N)c(=O)[nH]c2ccccc12 [Example 1-10, 4-(diethylamino)-2-oxo-1,2-dihydroquinoline-3-carbonitrile]",0.0889
4,"CC1(C)CCN(c2c(C#N)c(=O)[nH]c3ccccc23)CC1 [Example 1-11, 4-(4,4-dimethylpiperidin-1-yl)-2-oxo-1,2-dihydroquinoline-3-carbonitrile]",0.0263

# Continued by falling Ki, values first:
row,Ki [µM],SMILES
1,5.55,"N#Cc1c(N2CCC2)c2ccccc2[nH]c1=O [Example 1-9, 4-(azetidin-1-yl)-2-oxo-1,2-dihydroquinoline-3-carbonitrile]"
2,0.018,"N#Cc1c(N2CCCCCC2)c2ccccc2[nH]c1=O [Example 1-8, 4-(azepan-1-yl)-2-oxo-1,2-dihydroquinoline-3-carbonitrile]"

# Source: patent US10376504B2, “Substituted quinolinones as PDE9 inhibitors” (Merck Sharp & Dohme Corp., priority 2015, dated 2019)
